In brackets after ≈: the same amount, converted by molar mass. Structures can show the parent of a compound that is named as a salt.
How the values were obtained:
[1] = tested on: Newcastle disease virus; assay: Antiviral activity against Newcastle disease virus infected in chick embryo fibroblasts assessed as suppression of virus multiplication to 1% by measuring hemagglutinating activity by tube assay method; format: functional; conditions: avian paramyxovirus 1
[2] = Cytotoxicity against chick embryo fibroblasts after 24 hrs by microscopic analysis; format: cell-based, Gallus gallus, Fibroblast; conditions: chicken
[3] = tested on: Newcastle disease virus; assay: Ratio of amantadine hydrochloride MIC to compound MIC for Newcastle disease virus infected in chick embryo fibroblasts; format: functional, avian paramyxovirus 1

Q: For `NC12CC3CC(CC(C3)C1)C2` [AMANTADINE HYDROCHLORIDE], which MIC [1] is on record?
A: 1300 µM

Q: What about the MCC at 24 h [2] of the same molecule?
A: 1300 µM

Q: Which MIC [1] does the source give for `O=P(O)(O[C@H]1C[C@H]2C[C@H]1[C@@H]1CCC[C@H]21)O[C@H]1C[C@H]2C[C@H]1[C@@H]1CCC[C@H]21` here?
A: 550 µM (≈ 202 µg/mL)

Q: And the MCC at 24 h [2]?
A: 550 µM

Q: What about the Ratio [3] of the same molecule?
A: 2

Q: Which MIC [1] does the source give for `O=P(O[C@H]1C[C@H]2C[C@H]1[C@@H]1CCC[C@H]21)(O[C@H]1C[C@H]2C[C@H]1[C@@H]1CCC[C@H]21)O[C@H]1C[C@H]2C[C@H]1[C@@H]1CCC[C@H]21` here?
A: 1000 µM (≈ 501 µg/mL)

Q: And the MCC at 24 h [2]?
A: 400 µM

From ChEMBL document CHEMBL3272246, “Biological active polycycloalkanes. 4. Phosphoric esters of trimethylenenorbornyl alcohols” (J Med Chem, 1977)
